Measured values published in PubChem BioAssay AID1963829 (Molecular Pharmacology Branch, DTP, NCI, 2024).

Test system: 935938-334-R-J1-PDC complex spheroid viability
Experiment: Anticancer human tumor 935938-334-R-J1-PDC patient-derived small intestine adenocarcinoma cell line growth inhibition [POLQ]
Conditions: for IC50: curve of first compound; for viability, T/C: stronger effect = lower value
How it was run: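 Complex spheroid viability model combining PDC tumour cells with endothelial (HUVEC) and MSC stromal cells. Novobiocin, ART-558 or RP6685 were tested singly and in combination with standard and investigational anticancer drugs. Each was titrated in half-log steps from near clinical Cmax, or from 10 microM where Cmax was unknown.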

[1] = second compound 0.0316 µM, first compound 0.0316 µM
[2] = second compound 0.0316 µM, first compound 0.1 µM
[3] = second compound 0.0316 µM, first compound 0.316 µM
[4] = second compound 0.0316 µM, first compound 1 µM
[5] = second compound 0.0316 µM, first compound 3.16 µM
[6] = second compound 0.0316 µM, first compound 10 µM
[7] = second compound 0.1 µM, first compound 0.0316 µM
[8] = second compound 0.1 µM, first compound 0.1 µM
[9] = second compound 0.1 µM, first compound 0.316 µM
[10] = second compound 0.1 µM, first compound 1 µM
[11] = second compound 0.1 µM, first compound 3.16 µM
[12] = second compound 0.1 µM, first compound 10 µM
[13] = second compound 0.316 µM, first compound 0.0316 µM
[14] = second compound 0.316 µM, first compound 0.1 µM
[15] = second compound 0.316 µM, first compound 0.316 µM
[16] = second compound 0.316 µM, first compound 1 µM
[17] = second compound 0.316 µM, first compound 3.16 µM
[18] = second compound 0.316 µM, first compound 10 µM
[19] = second compound 1 µM, first compound 0.0316 µM
[20] = second compound 1 µM, first compound 0.1 µM
[21] = second compound 1 µM, first compound 0.316 µM
[22] = second compound 1 µM, first compound 1 µM
[23] = second compound 1 µM, first compound 3.16 µM
[24] = second compound 1 µM, first compound 10 µM
[25] = second compound 3.16 µM, first compound 0.0316 µM
[26] = second compound 3.16 µM, first compound 0.1 µM
[27] = second compound 3.16 µM, first compound 0.316 µM
[28] = second compound 3.16 µM, first compound 1 µM
[29] = second compound 3.16 µM, first compound 3.16 µM
[30] = second compound 3.16 µM, first compound 10 µM
[31] = second compound 10 µM, first compound 0.0316 µM
[32] = second compound 10 µM, first compound 0.1 µM
[33] = second compound 10 µM, first compound 0.316 µM
[34] = second compound 10 µM, first compound 1 µM
[35] = second compound 10 µM, first compound 3.16 µM
[36] = second compound 10 µM, first compound 10 µM
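Also: spheroids exposed to drugs for seven days before viability read.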
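For viability, T/C in this document: 100% = DMSO vehicle control wells.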

CCCS(=O)(=O)Nc1ccc(F)c(C(=O)c2c[nH]c3ncc(-c4ccc(Cl)cc4)cc23)c1F + Nc1ccc(C#CCN(C(=O)Cc2ncc(C(F)(F)F)cc2C(F)(F)F)c2ccc(F)cc2)nn1
IC50 (second compound 0.0316 µM): 9.23 µM
IC50 (second compound 0.1 µM): 9.61 µM
IC50 (second compound 0.316 µM): > 10 µM
IC50 (second compound 1 µM): > 10 µM
IC50 (second compound 3.16 µM): 9.37 µM
IC50 (second compound 10 µM): 9.98 µM
viability, T/C [1]: 114%
viability, T/C [2]: 112%
viability, T/C [3]: 117%
viability, T/C [4]: 135%
viability, T/C [5]: 113%
viability, T/C [6]: 45%
viability, T/C [7]: 126%
viability, T/C [8]: 138%
viability, T/C [9]: 109%
viability, T/C [10]: 140%
viability, T/C [11]: 131%
viability, T/C [12]: 47.3%
viability, T/C [13]: 118%
viability, T/C [14]: 121%
viability, T/C [15]: 90.9%
viability, T/C [16]: 165%
viability, T/C [17]: 120%
viability, T/C [18]: 50.3%
viability, T/C [19]: 103%
viability, T/C [20]: 97.4%
viability, T/C [21]: 95.1%
viability, T/C [22]: 112%
viability, T/C [23]: 129%
viability, T/C [24]: 63.2%
viability, T/C [25]: 110%
viability, T/C [26]: 121%
viability, T/C [27]: 140%
viability, T/C [28]: 158%
viability, T/C [29]: 121%
viability, T/C [30]: 45.6%
viability, T/C [31]: 104%
viability, T/C [32]: 125%
viability, T/C [33]: 145%
viability, T/C [34]: 174%
viability, T/C [35]: 151%
viability, T/C [36]: 50%

COc1ccc([C@@H](O)c2cc(-c3ncnc4cc(N5CCOCC5)ccc34)c(F)cc2Cl)nn1 + Nc1ccc(C#CCN(C(=O)Cc2ncc(C(F)(F)F)cc2C(F)(F)F)c2ccc(F)cc2)nn1
IC50 (second compound 0.0316 µM): 6.57 µM
IC50 (second compound 0.1 µM): 5.84 µM
IC50 (second compound 0.316 µM): 5.43 µM
IC50 (second compound 1 µM): 5.24 µM
IC50 (second compound 3.16 µM): 3.68 µM
IC50 (second compound 10 µM): 2.04 µM
viability, T/C [1]: 87.1%
viability, T/C [2]: 81.3%
viability, T/C [3]: 98.4%
viability, T/C [4]: 102%
viability, T/C [5]: 59.2%
viability, T/C [6]: 44.7%
viability, T/C [7]: 120%
viability, T/C [8]: 98.5%
viability, T/C [9]: 105%
viability, T/C [10]: 109%
viability, T/C [11]: 73.7%
viability, T/C [12]: 29.4%
viability, T/C [13]: 106%
viability, T/C [14]: 106%
viability, T/C [15]: 110%
viability, T/C [16]: 84.9%
viability, T/C [17]: 74.8%
viability, T/C [18]: 25%
viability, T/C [19]: 118%
viability, T/C [20]: 96.6%
viability, T/C [21]: 106%
viability, T/C [22]: 82.3%
viability, T/C [23]: 70.1%
viability, T/C [24]: 28.5%
viability, T/C [25]: 109%
viability, T/C [26]: 98.9%
viability, T/C [27]: 96.5%
viability, T/C [28]: 80.5%
viability, T/C [29]: 52.1%
viability, T/C [30]: 29.6%
viability, T/C [31]: 81.1%
viability, T/C [32]: 83.6%
viability, T/C [33]: 118%
viability, T/C [34]: 60.5%
viability, T/C [35]: 54%
viability, T/C [36]: 33.1%

Cn1ncnc1[C@H]1c2n[nH]c(=O)c3cc(F)cc(c23)N[C@@H]1c1ccc(F)cc1 + Nc1ccc(C#CCN(C(=O)Cc2ncc(C(F)(F)F)cc2C(F)(F)F)c2ccc(F)cc2)nn1
IC50 (second compound 0.0316 µM): > 0.1 µM
IC50 (second compound 0.1 µM): > 0.1 µM
IC50 (second compound 0.316 µM): > 0.1 µM
IC50 (second compound 1 µM): > 0.1 µM
IC50 (second compound 3.16 µM): > 0.1 µM
IC50 (second compound 10 µM): > 0.1 µM
viability, T/C (second compound 0.0316 µM, first compound 0.000316 µM): 98%
viability, T/C (second compound 0.0316 µM, first compound 0.001 µM): 106%
viability, T/C (second compound 0.0316 µM, first compound 0.00316 µM): 94.5%
viability, T/C (second compound 0.0316 µM, first compound 0.01 µM): 73.1%
viability, T/C [1]: 83.9%
viability, T/C [2]: 101%
viability, T/C (second compound 0.1 µM, first compound 0.000316 µM): 68%
viability, T/C (second compound 0.1 µM, first compound 0.001 µM): 103%
viability, T/C (second compound 0.1 µM, first compound 0.00316 µM): 88.4%
viability, T/C (second compound 0.1 µM, first compound 0.01 µM): 97.9%
viability, T/C [7]: 86.5%
viability, T/C [8]: 92.9%
viability, T/C (second compound 0.316 µM, first compound 0.000316 µM): 102%
viability, T/C (second compound 0.316 µM, first compound 0.001 µM): 104%
viability, T/C (second compound 0.316 µM, first compound 0.00316 µM): 107%
viability, T/C (second compound 0.316 µM, first compound 0.01 µM): 105%
viability, T/C [13]: 106%
viability, T/C [14]: 76.9%
viability, T/C (second compound 1 µM, first compound 0.000316 µM): 95.5%
viability, T/C (second compound 1 µM, first compound 0.001 µM): 85.5%
viability, T/C (second compound 1 µM, first compound 0.00316 µM): 91.9%
viability, T/C (second compound 1 µM, first compound 0.01 µM): 79%
viability, T/C [19]: 96.6%
viability, T/C [20]: 85.1%
viability, T/C (second compound 3.16 µM, first compound 0.000316 µM): 69%
viability, T/C (second compound 3.16 µM, first compound 0.001 µM): 81.4%
viability, T/C (second compound 3.16 µM, first compound 0.00316 µM): 88.1%
viability, T/C (second compound 3.16 µM, first compound 0.01 µM): 86.9%
viability, T/C [25]: 85.1%
viability, T/C [26]: 111%
viability, T/C (second compound 10 µM, first compound 0.000316 µM): 107%
viability, T/C (second compound 10 µM, first compound 0.001 µM): 106%
viability, T/C (second compound 10 µM, first compound 0.00316 µM): 106%
viability, T/C (second compound 10 µM, first compound 0.01 µM): 94.3%
viability, T/C [31]: 99.5%
viability, T/C [32]: 92%
